Read-outs that look alike come from different tables or passages of the source.
Target: T1, BRAF V600E (Homo sapiens, UniProt P15056+Q96SW2, V600E)
T1 construct: knock-in of the HiBiT tag to the endogenous BRAF V600E locus; host or cells: A375.10 (A375 clonal line, CRISPR HiBiT knock-in at the endogenous BRAF V600E locus)
Experiment: BRAF V600E HiBiT Degradation Assay
Type: cell-based
Details: for DC50: A375.10 cells, BRAF V600E, 2 hours; for Emax: read-out: HiBiT-Degradation A375.10 BRAF 2 hours Emax, A375.10 cells, BRAF V600E, 2 hours, residual protein remaining
Outline: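 Endogenous HiBiT knock-in on BRAF V600E in A375 cells (clone A375.10); 11-point half-log series, top 10 μM, 2, 6 or 24 h at 37° C. Lytic HiBiT luminescence, background-subtracted, normalized to DMSO; 4-parameter fit gives DC50, Emax (residual protein) and IP (inflection point).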

[1] = read-out: HiBiT-Degradation A375.10 BRAF 2 hours DC50
[2] = read-out: HiBiT-Degradation A375.10 BRAF 2 hours IP, inflection point

T1 sequence (P15056 whole entry V600E): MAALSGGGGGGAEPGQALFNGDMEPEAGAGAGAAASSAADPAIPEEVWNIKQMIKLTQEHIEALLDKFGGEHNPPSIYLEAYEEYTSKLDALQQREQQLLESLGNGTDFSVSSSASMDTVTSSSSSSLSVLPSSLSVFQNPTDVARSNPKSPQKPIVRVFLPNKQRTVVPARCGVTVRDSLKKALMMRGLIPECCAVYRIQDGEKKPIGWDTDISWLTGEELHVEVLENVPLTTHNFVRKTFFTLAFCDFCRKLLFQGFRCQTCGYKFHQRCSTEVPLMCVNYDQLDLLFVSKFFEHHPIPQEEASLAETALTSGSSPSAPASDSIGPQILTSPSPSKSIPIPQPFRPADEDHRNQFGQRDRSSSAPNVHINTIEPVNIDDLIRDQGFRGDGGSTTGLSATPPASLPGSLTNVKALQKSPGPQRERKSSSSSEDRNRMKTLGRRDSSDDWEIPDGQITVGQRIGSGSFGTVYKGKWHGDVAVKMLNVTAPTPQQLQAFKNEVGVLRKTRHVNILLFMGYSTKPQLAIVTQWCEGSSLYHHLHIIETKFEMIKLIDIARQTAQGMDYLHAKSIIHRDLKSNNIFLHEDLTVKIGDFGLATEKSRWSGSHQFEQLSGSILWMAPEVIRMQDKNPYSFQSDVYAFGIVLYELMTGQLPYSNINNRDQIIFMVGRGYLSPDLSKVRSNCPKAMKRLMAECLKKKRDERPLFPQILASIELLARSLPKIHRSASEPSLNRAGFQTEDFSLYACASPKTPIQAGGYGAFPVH
T1 sequence (Q96SW2 whole entry): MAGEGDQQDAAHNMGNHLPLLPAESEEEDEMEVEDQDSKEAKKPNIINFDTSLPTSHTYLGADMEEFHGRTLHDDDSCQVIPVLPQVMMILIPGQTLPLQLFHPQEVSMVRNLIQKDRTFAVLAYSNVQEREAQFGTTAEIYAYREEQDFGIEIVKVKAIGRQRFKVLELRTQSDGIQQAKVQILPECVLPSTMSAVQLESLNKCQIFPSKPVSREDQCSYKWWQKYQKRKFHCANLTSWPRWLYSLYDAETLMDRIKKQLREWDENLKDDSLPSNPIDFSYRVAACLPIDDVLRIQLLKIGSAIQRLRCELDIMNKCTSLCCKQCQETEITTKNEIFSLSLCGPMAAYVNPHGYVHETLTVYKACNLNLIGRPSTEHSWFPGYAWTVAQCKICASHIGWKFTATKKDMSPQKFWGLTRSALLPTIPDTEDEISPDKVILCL
T1 sequence (Q16531 whole entry partner): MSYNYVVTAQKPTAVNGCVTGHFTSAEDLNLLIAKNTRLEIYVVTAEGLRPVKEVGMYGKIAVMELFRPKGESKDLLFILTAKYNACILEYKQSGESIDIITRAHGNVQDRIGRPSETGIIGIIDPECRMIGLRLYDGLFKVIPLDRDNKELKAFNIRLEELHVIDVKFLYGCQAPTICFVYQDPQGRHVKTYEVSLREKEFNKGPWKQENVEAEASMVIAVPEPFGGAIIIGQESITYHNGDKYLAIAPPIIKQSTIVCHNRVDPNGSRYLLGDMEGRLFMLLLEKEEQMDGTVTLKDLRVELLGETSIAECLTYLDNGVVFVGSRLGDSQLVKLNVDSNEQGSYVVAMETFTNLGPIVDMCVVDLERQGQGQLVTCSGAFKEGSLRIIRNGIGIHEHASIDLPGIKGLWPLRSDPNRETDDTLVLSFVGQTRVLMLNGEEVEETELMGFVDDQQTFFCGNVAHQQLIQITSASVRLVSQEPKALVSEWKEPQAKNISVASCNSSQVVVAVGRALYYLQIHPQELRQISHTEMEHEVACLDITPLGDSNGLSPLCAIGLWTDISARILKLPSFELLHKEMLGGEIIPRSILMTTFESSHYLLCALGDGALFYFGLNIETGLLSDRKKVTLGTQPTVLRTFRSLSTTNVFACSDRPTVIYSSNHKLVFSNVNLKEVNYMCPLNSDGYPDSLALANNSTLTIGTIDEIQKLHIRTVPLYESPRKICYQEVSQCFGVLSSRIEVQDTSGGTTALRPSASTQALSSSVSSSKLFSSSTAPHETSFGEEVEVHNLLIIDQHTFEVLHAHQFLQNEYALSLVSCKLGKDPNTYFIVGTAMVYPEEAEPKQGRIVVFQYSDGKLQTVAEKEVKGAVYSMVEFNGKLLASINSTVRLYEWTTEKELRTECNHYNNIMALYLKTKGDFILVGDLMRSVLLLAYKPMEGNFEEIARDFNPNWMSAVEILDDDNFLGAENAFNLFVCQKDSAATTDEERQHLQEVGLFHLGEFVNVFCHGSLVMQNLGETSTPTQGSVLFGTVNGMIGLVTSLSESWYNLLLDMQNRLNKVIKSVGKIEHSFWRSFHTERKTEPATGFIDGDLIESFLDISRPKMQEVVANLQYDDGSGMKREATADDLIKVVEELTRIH

| DC50 [1] | Emax | DC50 [2] | Compound |
| --- | --- | --- | --- |
| < 1000 nM | < 50% | < 1000 nM | CO[C@@H]1CCN(S(=O)(=O)Nc2ccc(F)c(Oc3ccc4ncn(C5CC6(CCN(C7CC8(C7)CN(c7cc9c(cc7F)c(N7CCC(=O)NC7=O)nn9C)C8)CC6)C5)c(=O)c4c3)c2C#N)C1 (stereo partly drawn) [Compound 269, (3R)-N-[2-cyano-3-[3-[7-[2-[3-(2,4-dioxohexahydropyrimidin-1-yl)-5-fluoro-1-methyl-indazol-6-yl]-2-azaspiro[3.3]heptan-6-yl]-7-azaspiro[3.5]nonan-2-yl]-4-oxo-quinazolin-6-yl]oxy-4-fluoro-phenyl]-3-methoxy-pyrrolidine-1-sulfonamide] |
| < 1000 nM | < 50% | < 1000 nM | COC1CN(S(=O)(=O)Nc2ccc(F)c(Oc3ccc4ncn(C5CC6(CCN(C7CC8(C7)CN(c7cc9c(cc7F)c(N7CCC(=O)NC7=O)nn9C)C8)CC6)C5)c(=O)c4c3)c2C#N)C1 (stereo not drawn) [Compound 280, N-[2-cyano-3-[3-[7-[2-[3-(2,4-dioxohexahydropyrimidin-1-yl)-5-fluoro-1-methyl-indazol-6-yl]-2-azaspiro[3.3]heptan-6-yl]-7-azaspiro[3.5]nonan-2-yl]-4-oxo-quinazolin-6-yl]oxy-4-fluoro-phenyl]-3-methoxy-azetidine-1-sulfonamide] |
